Where two headings read alike, the source gives them in different places.
Biological target: FASN enzyme (Homo sapiens, UniProt P49327)
Assay: Enzymatic Assay for FASN Inhibitors
Assay type: biochemical
Experimental: Assays were performed in a 384-well black plate to measure the inhibition of FASN activities by individual compounds herein disclosed. An aliquot of 250 nL of compound was incubated with 10 μL of 40 nM FASN enzyme in assay buffer (50 mM HEPES pH=7.3, 0.5 mM EDTA, 1 mM Ascorbate, 100 mM NaCl and 0.04% TritonX-100) in each well at 25° C. for 60 minutes. After the plate was centrifuged briefly, 10 μL of substrate mix (20 μM Acetyl-CoA, 60 μM Malonyl-CoA, and 100 μM NADPH in assay buffer) was added to each well. The reaction was maintained at 25° C. for 90 minutes. The reaction was then quenched by adding 10 μL of 90 μM 7-Diethylamino-3-(4′-Maleimidylpheynyl)-4-Methylcoumarin in 50/50 Ethanol/H2O solution. The assay plate was incubated at 25° C. for 15 minutes, and read on a plate reader with excitation and emission wavelength at 360 nm and 530 nm, respectively. The IC50 of a given compound was calculated by fitting the dose response curve with a four parameter logistic equation.

[1] = FASN enzymatic assay, Table 2-2
[2] = FASN enzymatic assay, Table 2-3

FASN enzyme, sequence (P49327 whole entry): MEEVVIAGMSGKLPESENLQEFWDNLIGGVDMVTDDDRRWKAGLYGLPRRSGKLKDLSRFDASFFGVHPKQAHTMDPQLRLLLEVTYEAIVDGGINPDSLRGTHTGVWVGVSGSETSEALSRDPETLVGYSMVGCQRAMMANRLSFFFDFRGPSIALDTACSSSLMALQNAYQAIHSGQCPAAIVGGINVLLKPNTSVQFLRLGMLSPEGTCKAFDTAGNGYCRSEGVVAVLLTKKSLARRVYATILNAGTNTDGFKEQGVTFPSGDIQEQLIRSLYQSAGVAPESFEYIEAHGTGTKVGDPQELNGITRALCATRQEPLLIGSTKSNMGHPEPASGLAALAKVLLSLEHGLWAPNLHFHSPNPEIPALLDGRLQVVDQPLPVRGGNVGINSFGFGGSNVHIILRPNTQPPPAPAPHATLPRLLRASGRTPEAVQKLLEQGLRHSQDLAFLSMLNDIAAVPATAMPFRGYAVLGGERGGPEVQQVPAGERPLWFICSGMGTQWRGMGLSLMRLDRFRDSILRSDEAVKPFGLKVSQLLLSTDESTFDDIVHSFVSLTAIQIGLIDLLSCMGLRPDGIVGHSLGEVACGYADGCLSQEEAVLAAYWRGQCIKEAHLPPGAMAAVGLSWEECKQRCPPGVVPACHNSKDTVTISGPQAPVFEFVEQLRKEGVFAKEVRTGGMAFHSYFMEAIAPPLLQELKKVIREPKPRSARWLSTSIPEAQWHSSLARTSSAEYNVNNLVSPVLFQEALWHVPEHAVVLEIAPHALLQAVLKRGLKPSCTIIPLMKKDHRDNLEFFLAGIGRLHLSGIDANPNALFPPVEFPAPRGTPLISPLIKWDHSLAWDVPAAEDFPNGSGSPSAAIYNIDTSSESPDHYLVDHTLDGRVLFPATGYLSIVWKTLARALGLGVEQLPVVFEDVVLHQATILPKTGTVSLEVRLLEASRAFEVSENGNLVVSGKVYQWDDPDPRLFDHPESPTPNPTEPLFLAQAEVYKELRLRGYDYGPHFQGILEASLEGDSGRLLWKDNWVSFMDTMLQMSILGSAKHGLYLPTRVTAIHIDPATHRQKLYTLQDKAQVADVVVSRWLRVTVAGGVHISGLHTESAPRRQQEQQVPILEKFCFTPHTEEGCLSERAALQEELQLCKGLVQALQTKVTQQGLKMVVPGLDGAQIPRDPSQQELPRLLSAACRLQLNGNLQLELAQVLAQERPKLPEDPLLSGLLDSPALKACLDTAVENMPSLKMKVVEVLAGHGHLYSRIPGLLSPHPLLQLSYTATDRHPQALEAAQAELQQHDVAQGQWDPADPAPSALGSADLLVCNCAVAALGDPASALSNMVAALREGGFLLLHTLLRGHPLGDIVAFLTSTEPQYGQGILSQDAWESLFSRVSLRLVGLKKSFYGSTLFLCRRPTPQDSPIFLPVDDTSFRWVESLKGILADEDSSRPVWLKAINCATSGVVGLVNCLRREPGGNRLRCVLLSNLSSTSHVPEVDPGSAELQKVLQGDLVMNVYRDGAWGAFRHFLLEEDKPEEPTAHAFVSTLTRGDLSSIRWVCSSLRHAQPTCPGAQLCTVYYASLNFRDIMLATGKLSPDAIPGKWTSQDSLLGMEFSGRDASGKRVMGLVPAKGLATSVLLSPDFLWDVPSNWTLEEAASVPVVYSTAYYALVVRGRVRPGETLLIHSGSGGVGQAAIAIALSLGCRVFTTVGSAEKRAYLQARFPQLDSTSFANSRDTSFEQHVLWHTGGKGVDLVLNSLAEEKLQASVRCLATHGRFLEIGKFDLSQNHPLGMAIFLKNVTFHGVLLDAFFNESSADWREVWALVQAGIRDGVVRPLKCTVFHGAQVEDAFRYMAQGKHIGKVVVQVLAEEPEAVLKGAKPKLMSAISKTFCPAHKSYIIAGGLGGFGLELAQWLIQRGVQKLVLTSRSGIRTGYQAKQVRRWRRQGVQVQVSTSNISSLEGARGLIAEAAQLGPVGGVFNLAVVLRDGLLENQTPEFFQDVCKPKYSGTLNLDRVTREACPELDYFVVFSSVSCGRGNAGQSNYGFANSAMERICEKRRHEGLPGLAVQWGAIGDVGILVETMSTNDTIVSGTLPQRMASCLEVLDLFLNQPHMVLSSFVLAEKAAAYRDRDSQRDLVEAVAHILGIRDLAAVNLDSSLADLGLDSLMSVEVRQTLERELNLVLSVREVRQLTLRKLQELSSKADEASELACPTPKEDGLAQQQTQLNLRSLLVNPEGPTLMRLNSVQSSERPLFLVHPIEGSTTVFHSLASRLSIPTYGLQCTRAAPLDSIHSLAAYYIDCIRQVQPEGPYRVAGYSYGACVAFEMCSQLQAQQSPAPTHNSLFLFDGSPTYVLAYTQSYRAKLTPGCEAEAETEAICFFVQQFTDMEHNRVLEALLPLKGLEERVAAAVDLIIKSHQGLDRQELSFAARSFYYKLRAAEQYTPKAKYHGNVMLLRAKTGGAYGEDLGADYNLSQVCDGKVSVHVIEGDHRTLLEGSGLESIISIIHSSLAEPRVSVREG

Row | IC50 | SMILES | other results
1 |  | O=C(c1ccc(-c2ccccc2)cc1)N1CCN(C(=O)C2(O)CCC2)CC1 [1-({4-[(4-phenylphenyl)carbonyl]piperazin-1-yl}carbonyl)cyclobutan-1-ol] | IC50 [1]: 0.5 to 5 µM
2 |  | O=C(c1ccc(-c2ccccc2)cc1)N1CCN(C(=O)C2(O)CCCC2)CC1 [1-({4-[(4-phenylphenyl)carbonyl]piperazin-1-yl}carbonyl)cyclopentan-1-ol] | IC50 [2]: ≥ 5 µM
3 | < 0.5 µM | O=C(c1ccc(-c2ccccc2)cc1)N1CCN(C(=O)C2(O)CC2)CC1 [1-({4-[(4-phenylphenyl)carbonyl]piperazin-1-yl}carbonyl)cyclopropan-1-ol] | 
4 |  | O=C(c1ccc(-c2cnc3ccc(Cl)cn23)cc1)N1CCN(C(=O)C2(O)CC2)CC1 [1-({4-[(4-{6-chloroimidazo[1,2-a]pyridin-3-yl}phenyl)carbonyl]piperazin-1-yl}carbonyl)cyclopropan-1-ol] | IC50 [1]: 0.5 to 5 µM
5 |  | O=C(c1ccc(-c2cn3cc(F)ccc3n2)cc1)N1CCN(C(=O)C2(O)CC2)CC1 [1-({4-[(4-{6-fluoroimidazo[1,2-a]pyridin-2-yl}phenyl)carbonyl]piperazin-1-yl}carbonyl)cyclopropan-1-ol] | IC50 [2]: ≥ 5 µM
6 |  | COc1ccc2nc(-c3ccc(C(=O)N4CCN(C(=O)C5(O)CC5)CC4)cc3)cn2c1 [1-({4-[(4-{6-methoxyimidazo[1,2-a]pyridin-2-yl}phenyl)carbonyl]piperazin-1-yl}carbonyl)cyclopropan-1-ol] | IC50 [1]: 0.5 to 5 µM
7 |  | O=C(c1ccc(-c2nccc3occc23)cc1)N1CCN(C(=O)C2(O)CC2)CC1 [1-({4-[(4-{furo[3,2-c]pyridin-4-yl}phenyl)carbonyl]piperazin-1-yl}carbonyl)cyclopropan-1-ol] | IC50 [1]: 0.5 to 5 µM
8 |  | O=C(c1ccc(-c2cn3ccnc3cn2)cc1)N1CCN(C(=O)C2(O)CC2)CC1 [1-({4-[(4-{imidazo[1,2-a]pyrazin-6-yl}phenyl)carbonyl]piperazin-1-yl}carbonyl)cyclopropan-1-ol] | IC50 [1]: 0.5 to 5 µM
9 |  | O=C(c1ccc(-c2ccc3nccn3c2)cc1)N1CCN(C(=O)C2(O)CC2)CC1 [1-({4-[(4-{imidazo[1,2-a]pyridin-6-yl}phenyl)carbonyl]piperazin-1-yl}carbonyl)cyclopropan-1-ol] | IC50 [1]: 0.5 to 5 µM
10 |  | O=C(c1ccc(-c2ccn3ccnc3n2)cc1)N1CCN(C(=O)C2(O)CC2)CC1 [1-({4-[(4-{imidazo[1,2-a]pyrimidin-7-yl}phenyl)carbonyl]piperazin-1-yl}carbonyl)cyclopropan-1-ol] | IC50 [1]: 0.5 to 5 µM
11 | < 0.5 µM | O=C(c1ccc(-c2nc3ccccn3c2Cl)cc1Cl)N1CCN(C(=O)C2(O)CC2)CC1 [1-[4-(2-chloro-4-{3-chloroimidazo[1,2-a]pyridin-2-yl}benzoyl)piperazine-1-carbonyl]cyclopropan-1-ol] | 
12 | < 0.5 µM | O=C(c1ccc(-c2nc3ccccn3c2Cl)c(Cl)c1)N1CCN(C(=O)C2(O)CC2)CC1 [1-[4-(3-chloro-4-{3-chloroimidazo[1,2-a]pyridin-2-yl}benzoyl)piperazine-1-carbonyl]cyclopropan-1-ol] | 
13 | < 0.5 µM | O=C(c1ccc(N2CCc3[nH]c4ccccc4c3C2)cc1)N1CCN(C(=O)C2(O)CC2)CC1 [1-[4-(4-{1H,2H,3H,4H,5H-pyrido[4,3-b]indol-2-yl}benzoyl)piperazine-1-carbonyl]cyclopropan-1-ol] | 
14 | < 0.5 µM | O=C(c1ccc(N2CCc3c([nH]c4ccccc34)C2)cc1)N1CCN(C(=O)C2(O)CC2)CC1 [1-[4-(4-{1H,2H,3H,4H,9H-pyrido[3,4-b]indol-2-yl}benzoyl)piperazine-1-carbonyl]cyclopropan-1-ol] | 
15 | < 0.5 µM | O=C(c1ccc(-c2nc3ccccn3c2Cl)cc1F)N1CCN(C(=O)C2(O)CC2)CC1 [1-[4-(4-{3-chloroimidazo[1,2-a]pyridin-2-yl}-2-fluorobenzoyl)piperazine-1-carbonyl]cyclopropan-1-ol] | 
16 | < 0.5 µM | O=C(c1ccc(-c2nc3ccccn3c2Cl)c(F)c1)N1CCN(C(=O)C2(O)CC2)CC1 [1-[4-(4-{3-chloroimidazo[1,2-a]pyridin-2-yl}-3-fluorobenzoyl)piperazine-1-carbonyl]cyclopropan-1-ol] | 
17 | < 0.5 µM | Cc1n[nH]c2ncc(-c3ccc(C(=O)N4CCN(C(=O)C5(O)CC5)CC4)cc3)cc12 [1-[4-(4-{3-methyl-1H-pyrazolo[3,4-b]pyridin-5-yl}benzoyl)piperazine-1-carbonyl]cyclopropan-1-ol] | 
18 | < 0.5 µM | O=C(c1ccc(N2CCc3sccc3C2)cc1)N1CCN(C(=O)C2(O)CC2)CC1 [1-[4-(4-{4H,5H,6H,7H-thieno[3,2-c]pyridin-5-yl}benzoyl)piperazine-1-carbonyl]cyclopropan-1-ol] | 

Row | IC50 | SMILES | other results
19 | < 0.5 µM | O=C(c1ccc(-c2ccc3ccnn3c2)cc1)N1CCN(C(=O)C2(O)CC2)CC1 [1-[4-(4-{pyrazolo[1,5-a]pyridin-6-yl}benzoyl)piperazine-1-carbonyl]cyclopropan-1-ol] | 
20 | < 0.5 µM | Cn1cnc2cc(-c3ccc(C(=O)N4CCN(C(=O)C5(O)CC5)[C@@H](CO)C4)cc3)ccc21 [1-[(2R)-2-(hydroxymethyl)-4-[4-(1-methyl-1H-1,3-benzodiazol-5-yl)benzoyl]piperazine-1-carbonyl]cyclopropan-1-ol] | 
21 | < 0.5 µM | C[C@@H]1CN(C(=O)c2ccc(-c3ccc4c(c3)ncn4C)cc2)CCN1C(=O)C1(O)CC1 [1-[(2R)-2-methyl-4-[4-(1-methyl-1H-1,3-benzodiazol-5-yl)benzoyl]piperazine-1-carbonyl]cyclopropan-1-ol] | 
22 | < 0.5 µM | C[C@@H]1CN(C(=O)c2ccc(-c3ccc(Cl)cc3F)cc2)CCN1C(=O)C1(O)CC1 [1-[(2R)-4-[4-(4-chloro-2-fluorophenyl)benzoyl]-2-methylpiperazine-1-carbonyl]cyclopropan-1-ol] | 
23 | < 0.5 µM | C[C@@H]1CN(C(=O)c2ccc(-c3nc4ccc(F)cc4o3)cc2)CCN1C(=O)C1(O)CC1 [1-[(2R)-4-[4-(6-fluoro-1,3-benzoxazol-2-yl)benzoyl]-2-methylpiperazine-1-carbonyl]cyclopropan-1-ol] | 
24 | < 0.5 µM | C[C@@H]1CN(C(=O)c2ccc(-c3ccc4c(c3)ncn4C)cc2)C[C@H](C)N1C(=O)C1(O)CC1 [1-[(2R,6S)-2,6-dimethyl-4-[4-(1-methyl-1H-1,3-benzodiazol-5-yl)benzoyl]piperazine-1-carbonyl]cyclopropan-1-ol] | 
25 | < 0.5 µM | C[C@H]1CN(C(=O)c2ccc(-c3ccc4c(c3)ncn4C)cc2)CCN1C(=O)C1(N)CC1 [1-[(2S)-2-methyl-4-[4-(1-methyl-1H-1,3-benzodiazol-5-yl)benzoyl]piperazine-1-carbonyl]cyclopropan-1-amine] | 
26 | < 0.5 µM | C[C@H]1CN(C(=O)c2ccc(-c3ccc4c(c3)ncn4C)cc2)CCN1C(=O)C1(O)CC1 [1-[(2S)-2-methyl-4-[4-(1-methyl-1H-1,3-benzodiazol-5-yl)benzoyl]piperazine-1-carbonyl]cyclopropan-1-ol] | 
27 | < 0.5 µM | C[C@H]1CN(C(=O)c2ccc(-c3ccc4cnn(C)c4c3)cc2)CCN1C(=O)C1(O)CC1 [1-[(2S)-2-methyl-4-[4-(1-methyl-1H-indazol-6-yl)benzoyl]piperazine-1-carbonyl]cyclopropan-1-ol] | 
28 | < 0.5 µM | C[C@H]1CN(C(=O)c2ccc(-c3ccc4cn(C)nc4c3)cc2)CCN1C(=O)C1(O)CC1 [1-[(2S)-2-methyl-4-[4-(2-methyl-2H-indazol-6-yl)benzoyl]piperazine-1-carbonyl]cyclopropan-1-ol] | 
29 | < 0.5 µM | C[C@H]1CN(C(=O)c2ccc(N3CCc4cccnc4C3)cc2)CCN1C(=O)C1(O)CC1 [1-[(2S)-2-methyl-4-[4-(5,6,7,8-tetrahydro-1,7-naphthyridin-7-yl)benzoyl]piperazine-1-carbonyl]cyclopropan-1-ol] | 
30 | < 0.5 µM | C[C@H]1CN(C(=O)c2ccc(-c3ccc4c(c3)ncn4C)cc2F)CCN1C(=O)C1(O)CC1 [1-[(2S)-4-[2-fluoro-4-(1-methyl-1H-1,3-benzodiazol-5-yl)benzoyl]-2-methylpiperazine-1-carbonyl]cyclopropan-1-ol] | 
31 | < 0.5 µM | Cc1nn(C)c2ccc(-c3ccc(C(=O)N4CCN(C(=O)C5(O)CC5)[C@@H](C)C4)cc3)cc12 [1-[(2S)-4-[4-(1,3-dimethyl-1H-indazol-5-yl)benzoyl]-2-methylpiperazine-1-carbonyl]cyclopropan-1-ol] | 
32 | < 0.5 µM | C[C@H]1CN(C(=O)c2ccc(-c3nc4ccc(Cl)cc4o3)cc2)CCN1C(=O)C1(O)CC1 [1-[(2S)-4-[4-(6-chloro-1,3-benzoxazol-2-yl)benzoyl]-2-methylpiperazine-1-carbonyl]cyclopropan-1-ol] | 
33 | < 0.5 µM | C[C@H]1CN(C(=O)c2ccc(-c3nc4ccc(F)cc4o3)cc2)CCN1C(=O)C1(N)CC1 [1-[(2S)-4-[4-(6-fluoro-1,3-benzoxazol-2-yl)benzoyl]-2-methylpiperazine-1-carbonyl]cyclopropan-1-amine] | 
34 | < 0.5 µM | C[C@H]1CN(C(=O)c2ccc(-c3cccc(S(=O)(=O)C4CC4)c3)cc2)CCN1C(=O)C1(O)CC1 [1-[(2S)-4-{4-[3-(cyclopropanesulfonyl)phenyl]benzoyl}-2-methylpiperazine-1-carbonyl]cyclopropan-1-ol] | 
35 | < 0.5 µM | C[C@@H]1CN(C(=O)c2ccc(-c3ccc(Cl)cc3F)cc2)C[C@H](C)N1C(=O)C1(O)CC1 [1-[(2S,6R)-4-[4-(4-chloro-2-fluorophenyl)benzoyl]-2,6-dimethylpiperazine-1-carbonyl]cyclopropan-1-ol] | 
36 | < 0.5 µM | C[C@@H]1CN(C(=O)c2ccc(-c3nc4ccc(F)cc4o3)cc2)C[C@H](C)N1C(=O)C1(N)CC1 [1-[(2S,6R)-4-[4-(6-fluoro-1,3-benzoxazol-2-yl)benzoyl]-2,6-dimethylpiperazine-1-carbonyl]cyclopropan-1-amine] | 

— patent US10457655B2, “Compounds and compositions for inhibition of FASN” (FORMA Therapeutics, Inc., priority 2013, dated 2019)
